Measured values: US20260176320A1, “MODULATORS OF G-PROTEIN COUPLED RECEPTORS” (priority 2018, published 2026)
Like-named read-outs stand apart in the source and are kept apart here.

Legend:
[1] = target: GLP-1R (Homo sapiens, UniProt P43220); experiment: HitHunter cAMP assay (GLP-1R); format: cell-based; details: cAMP; for Emax: read-out: (Emax) GLP-1R
How it was run: (§1)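 Agonist stimulation lasts 30 min at room temperature on 10,000 cells per well, with phosphodiesterase blocked by 625 μM IBMX. Accumulated cAMP is quantified by competitive antibody luminescence after overnight development.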

[2] = target: T1, GIP-R (Homo sapiens, UniProt P48546); experiment: HitHunter cAMP assay (GIP-R); format: cell-based; details: cAMP; for Emax: read-out: (Emax) GIP-R
T1 sequence (P48546 22-466): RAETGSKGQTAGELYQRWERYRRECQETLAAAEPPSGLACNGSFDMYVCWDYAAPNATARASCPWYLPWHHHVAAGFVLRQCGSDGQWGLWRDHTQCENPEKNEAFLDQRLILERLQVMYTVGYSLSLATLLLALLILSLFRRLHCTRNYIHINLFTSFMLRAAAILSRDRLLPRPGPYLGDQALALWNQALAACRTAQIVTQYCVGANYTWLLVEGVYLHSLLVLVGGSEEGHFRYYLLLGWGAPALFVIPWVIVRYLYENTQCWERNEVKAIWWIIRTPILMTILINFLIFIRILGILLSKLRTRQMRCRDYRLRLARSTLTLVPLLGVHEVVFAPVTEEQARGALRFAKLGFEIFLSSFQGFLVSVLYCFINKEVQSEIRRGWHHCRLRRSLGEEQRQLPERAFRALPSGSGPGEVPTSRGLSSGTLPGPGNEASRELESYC
How it was run: as §1

[3] = Table 3, read-out: EC50 GLP-1R/nM
[4] = Table 3A, read-out: EC50 GLP-1R/nM
[5] = Table 3, read-out: EC50 GIP-R/nM
[6] = Table 3A, read-out: EC50 GIP-R/nM

Sequence of GLP-1R (P43220 24-463): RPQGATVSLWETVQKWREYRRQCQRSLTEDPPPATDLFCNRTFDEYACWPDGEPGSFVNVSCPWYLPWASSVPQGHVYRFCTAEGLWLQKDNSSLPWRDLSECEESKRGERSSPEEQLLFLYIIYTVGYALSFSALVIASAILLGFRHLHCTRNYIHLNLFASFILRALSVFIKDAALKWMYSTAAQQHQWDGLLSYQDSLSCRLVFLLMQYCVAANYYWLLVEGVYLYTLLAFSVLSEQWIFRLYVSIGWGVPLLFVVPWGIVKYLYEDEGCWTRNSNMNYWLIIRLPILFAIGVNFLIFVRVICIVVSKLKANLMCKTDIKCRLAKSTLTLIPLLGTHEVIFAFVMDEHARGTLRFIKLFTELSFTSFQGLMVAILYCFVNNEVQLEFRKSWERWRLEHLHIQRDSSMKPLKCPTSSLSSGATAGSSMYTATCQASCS

Row | SMILES | EC50 ([1]; EC50 GLP-1R/nM, Table 3) | EC50 ([1]; EC50 GLP-1R/nM, Table 3A) | Emax ([1]; Table 3) | Emax ([1]; Table 3A) | EC50 ([2]; EC50 GIP-R/nM, Table 3) | EC50 ([2]; EC50 GIP-R/nM, Table 3A) | Emax ([2]; Table 3) | Emax ([2]; Table 3A) | EC50 [1, 3] | EC50 [1, 4] | EC50 [2, 5] | EC50 [2, 6]
1 | CCCCCCCCCCCCCCCC(=O)N[C@@H](CCC(=O)NCCCC[C@H](NC(=O)[C@H](CO)NC(=O)[C@@H]1CCCN1C(=O)[C@@H]1CCCN1C(=O)[C@@H]1CCCN1C(=O)[C@H](C)NC(=O)CNC(=O)[C@H](CO)NC(=O)[C@H](CO)NC(=O)[C@@H]1CCCN1C(=O)CNC(=O)CNC(=O)[C@H](C)NC(=O)[C@H](CC(C)C)NC(=O)[C@H](CC(C)C)NC(=O)[C@H](Cc1c[nH]c2ccccc12)NC(=O)[C@H](CC(N)=O)NC(=O)[C@@H](NC(=O)[C@H](Cc1ccccc1)NC(=O)[C@H](CCC(=O)O)NC(=O)C(C)(C)NC(=O)[C@H](C)NC(=O)[C@H](C)NC(=O)[C@H](CCC(N)=O)NC(=O)[C@H](CCCCN)NC(=O)[C@H](CC(=O)O)NC(=O)[C@H](CC(C)C)NC(=O)[C@H](Cc1ccc(O)cc1)NC(=O)[C@@H](NC(=O)[C@H](CO)NC(=O)[C@H](Cc1ccc(O)cc1)NC(=O)[C@H](CC(=O)O)NC(=O)[C@H](CO)NC(=O)[C@@H](NC(=O)[C@H](Cc1ccccc1)NC(=O)[C@@H](NC(=O)CNC(=O)[C@H](CCC(=O)O)NC(=O)CSCC(=O)NCCN1C(=O)C[C@H](OC)C1=O)[C@@H](C)O)[C@@H](C)O)[C@@H](C)CC)C(C)C)C(N)=O)C(=O)O [Compound 49] | 0.1 to 1 nM | 0.1 to 1 nM | 101% | 101% | 0.1 to 1 nM | 0.1 to 1 nM | 48% | 48% |  |  |  | 
2 | CCCCCCCCCCCCCCCC(=O)N[C@@H](CCC(=O)NCCCC[C@H](NC(=O)[C@H](CO)NC(=O)[C@@H]1CCCN1C(=O)[C@@H]1CCCN1C(=O)[C@@H]1CCCN1C(=O)[C@H](C)NC(=O)CNC(=O)[C@H](CO)NC(=O)[C@H](CO)NC(=O)[C@@H]1CCCN1C(=O)CNC(=O)CNC(=O)[C@H](C)NC(=O)[C@H](CC(C)C)NC(=O)[C@H](CC(C)C)NC(=O)[C@H](Cc1c[nH]c2ccccc12)NC(=O)[C@H](CC(N)=O)NC(=O)[C@@H](NC(=O)[C@H](Cc1ccccc1)NC(=O)[C@H](CCC(=O)O)NC(=O)C(C)(C)NC(=O)[C@H](C)NC(=O)[C@H](C)NC(=O)[C@H](CCC(N)=O)NC(=O)[C@H](CCCCN)NC(=O)[C@H](CC(=O)O)NC(=O)[C@H](CC(C)C)NC(=O)[C@H](Cc1ccc(O)cc1)NC(=O)[C@@H](NC(=O)[C@H](CO)NC(=O)[C@H](Cc1ccc(O)cc1)NC(=O)[C@H](CC(=O)O)NC(=O)[C@H](CO)NC(=O)[C@@H](NC(=O)[C@H](Cc1ccccc1)NC(=O)[C@@H](NC(=O)CNC(=O)[C@H](CCC(=O)O)NC(=O)CSCC(=O)NCCn1ccccc1=O)[C@@H](C)O)[C@@H](C)O)[C@@H](C)CC)C(C)C)C(N)=O)C(=O)O [Compound 52] |  |  | 101% | 101% |  |  | 56 to 61% | 56 to 61% | < 0.1 nM | < 0.1 nM | 1 to 10 nM | 1 to 10 nM
3 | CC[C@H](C)[C@H](NC(=O)[C@H](CO)NC(=O)[C@H](Cc1ccc(O)cc1)NC(=O)[C@H](CC(=O)O)NC(=O)[C@H](CO)NC(=O)[C@@H](NC(=O)[C@H](Cc1ccccc1)NC(=O)[C@@H](NC(=O)CNC(=O)[C@H](CCC(=O)O)NC(=O)CC(=O)NCCN1C(=O)c2ccc(C)cc2C1=O)[C@@H](C)O)[C@@H](C)O)C(=O)N[C@@H](Cc1ccc(O)cc1)C(=O)N[C@@H](CC(C)C)C(=O)N[C@@H](CC(=O)O)C(=O)N[C@@H](CCCCN)C(=O)N[C@@H](CCC(N)=O)C(=O)N[C@@H](C)C(=O)N[C@@H](C)C(=O)NC(C)(C)C(=O)N[C@@H](CCC(=O)O)C(=O)N[C@@H](Cc1ccccc1)C(=O)N[C@H](C(=O)N[C@@H](CC(N)=O)C(=O)N[C@@H](Cc1c[nH]c2ccccc12)C(=O)N[C@@H](CC(C)C)C(=O)N[C@@H](CC(C)C)C(=O)N[C@@H](C)C(=O)NCC(=O)NCC(=O)N1CCC[C@H]1C(=O)N[C@@H](CO)C(=O)N[C@@H](CO)C(=O)NCC(=O)N[C@@H](C)C(=O)N1CCC[C@H]1C(=O)N1CCC[C@H]1C(=O)N1CCC[C@H]1C(=O)N[C@@H](CO)C(=O)N[C@@H](CCCCN)C(N)=O)C(C)C [Compound 126] | 10 to 100 nM | 10 to 100 nM | 84% | 84% | 10 to 100 nM | 10 to 100 nM | 42 to 51% | 42 to 51% |  |  |  | 
4 | CCCCCCCCCCCCCCCC(=O)N[C@@H](CCC(=O)NCCCC[C@H](NC(=O)[C@H](C)NC(=O)[C@H](C)NC(=O)[C@H](CCC(N)=O)NC(=O)[C@H](CCCCN)NC(=O)[C@H](CC(=O)O)NC(=O)[C@H](CC(C)C)NC(=O)[C@H](Cc1ccc(O)cc1)NC(=O)[C@@H](NC(=O)[C@H](CO)NC(=O)[C@H](Cc1ccc(O)cc1)NC(=O)[C@H](CC(=O)O)NC(=O)[C@H](CO)NC(=O)[C@@H](NC(=O)[C@H](Cc1ccccc1)NC(=O)[C@@H](NC(=O)CNC(=O)[C@H](CCC(=O)O)NC(=O)CSCC(=O)NCCN1C(=O)CSC1=O)[C@@H](C)O)[C@@H](C)O)[C@@H](C)CC)C(=O)N[C@@H](CCC(=O)O)C(=O)N[C@@H](Cc1ccccc1)C(=O)N[C@H](C(=O)N[C@@H](CC(N)=O)C(=O)N[C@@H](Cc1c[nH]c2ccccc12)C(=O)N[C@@H](CC(C)C)C(=O)N[C@@H](CC(C)C)C(=O)N[C@@H](C)C(=O)NCC(=O)NCC(=O)N1CCC[C@H]1C(=O)N[C@@H](CO)C(=O)N[C@@H](CO)C(=O)NCC(=O)N[C@@H](C)C(=O)N1CCC[C@H]1C(=O)N1CCC[C@H]1C(=O)N1CCC[C@H]1C(=O)N[C@@H](CO)C(=O)N[C@@H](CCCCN)C(N)=O)C(C)C)C(=O)O [Compound 200] |  |  |  | 89% |  |  |  | 66% |  | 10 to 100 nM |  | 100 to 1000 nM
5 | CC[C@H](C)[C@H](NC(=O)[C@H](CO)NC(=O)[C@H](Cc1ccc(O)cc1)NC(=O)[C@H](CC(=O)O)NC(=O)[C@H](CO)NC(=O)[C@@H](NC(=O)[C@H](Cc1ccccc1)NC(=O)[C@@H](NC(=O)CNC(=O)[C@H](CCC(=O)O)NC(=O)CSCC(=O)NCCN1C(=O)CCC1=O)[C@@H](C)O)[C@@H](C)O)C(=O)N[C@@H](Cc1ccc(O)cc1)C(=O)N[C@@H](CC(C)C)C(=O)N[C@@H](CC(=O)O)C(=O)N[C@@H](CCCCN)C(=O)N[C@@H](CCC(N)=O)C(=O)N[C@@H](C)C(=O)N[C@@H](C)C(=O)NC(C)(C)C(=O)N[C@@H](CCC(=O)O)C(=O)N[C@@H](Cc1ccccc1)C(=O)N[C@H](C(=O)N[C@@H](CC(N)=O)C(=O)N[C@@H](Cc1c[nH]c2ccccc12)C(=O)N[C@@H](CC(C)C)C(=O)N[C@@H](CC(C)C)C(=O)N[C@@H](C)C(=O)NCC(=O)NCC(=O)N1CCC[C@H]1C(=O)N[C@@H](CO)C(=O)N[C@@H](CO)C(=O)NCC(=O)N[C@@H](C)C(=O)N1CCC[C@H]1C(=O)N1CCC[C@H]1C(=O)N1CCC[C@H]1C(=O)N[C@@H](CO)C(=O)N[C@@H](CCCCN)C(N)=O)C(C)C [Compound 117] |  |  | 92% | 92% |  |  | 70% | 70% | 10 to 100 nM | 1 to 10 nM | 10 to 100 nM | 10 to 100 nM
6 | CCCCCCCCCCCCCCCC(=O)N[C@@H](CCC(=O)NCCCC[C@H](NC(=O)[C@H](CO)NC(=O)[C@@H]1CCCN1C(=O)[C@@H]1CCCN1C(=O)[C@@H]1CCCN1C(=O)[C@H](C)NC(=O)CNC(=O)[C@H](CO)NC(=O)[C@H](CO)NC(=O)[C@@H]1CCCN1C(=O)CNC(=O)CNC(=O)[C@H](C)NC(=O)[C@H](CC(C)C)NC(=O)[C@H](CC(C)C)NC(=O)[C@H](Cc1c[nH]c2ccccc12)NC(=O)[C@H](CC(N)=O)NC(=O)[C@@H](NC(=O)[C@H](Cc1ccccc1)NC(=O)[C@H](CCC(=O)O)NC(=O)C(C)(C)NC(=O)[C@H](C)NC(=O)[C@H](C)NC(=O)[C@H](CCC(N)=O)NC(=O)[C@H](CCCCN)NC(=O)[C@H](CC(=O)O)NC(=O)[C@H](CC(C)C)NC(=O)[C@H](Cc1ccc(O)cc1)NC(=O)[C@@H](NC(=O)[C@H](CO)NC(=O)[C@H](Cc1ccc(O)cc1)NC(=O)[C@H](CC(=O)O)NC(=O)[C@H](CO)NC(=O)[C@@H](NC(=O)[C@H](Cc1ccccc1)NC(=O)[C@@H](NC(=O)CNC(=O)[C@H](CCC(=O)O)NC(=O)CSCC(=O)NCCN1C(=O)C[C@H](O)C1=O)[C@@H](C)O)[C@@H](C)O)[C@@H](C)CC)C(C)C)C(N)=O)C(=O)O [Compound 78] | 0.1 to 1 nM | 0.1 to 1 nM | 94% | 94% | 1 to 10 nM | 1 to 10 nM | 58% | 58% |  |  |  | 
